Measurements from patent publication US20240335438A1, “TARGETING DOT1L AND SMARCA4/2 FOR THE TREATMENT OF MLLR LEUKEMIA” (DANA-FARBER CANCER INSTITUTE, INC., priority 2021, published 2024).
Entries after “also recorded” stand apart in the source; their conditions may differ.

How the values were obtained:
MLL rearranged cells = conditions: cited from earlier work
[1] = system: MLLr acute myeloid leukemia (AML); conditions: cited from earlier work
MLL-AF9 targets = experiment: RNA sequencing of MLL-AF9 targets (heatmap, GSEA) in MOLM13 cells; assay type: cell-based; conditions: EPZ5676 1.25 μM 4 days, S31 1 μM 6-10 hr, FIG. 11A
Protocol: MOLM13 cells were primed with 1.25 μM of EPZ5676 or DMSO for 4 days. At day 5, additional S31 (1 μM) or DMSO was added for another 6-10 hr. Cells were harvested and subjected to RNA isolation. Isolated RNA was sent to Novogene (USA) for RNA sequencing. Expression values of MLL-AF9 targets from each treatment group were plotted in heatmap (Morpheus) (FIG. 11A). GSEA analysis was performed by GSEA software 4.1.0 (Broad Institute) (FIG. 11B).
The molecular interdependency between DOT1L inhibition and SMARCA4/2 inactivation was explored using RNA-seq in MOLM13 cells treated with DMSO. S31. EPZ5676 and S31+EPZ5676. Persistent expression of MLL fusion targets maintained the leukemic transformation as a stem cell-like state. […] To define a detailed regulatory pattern of the effects of SMARCA4/2 and DOT1L on these genes, the RNA-seq results were plotted in a heatmap and identified one subset of genes are of particular interest. […] However, the combination of the two induced significant reduction of genes such as MYB and FLT3, which are critical for MLLr leukemia proliferation. S31 sensitized such MLL-AF9) targets to EPZ5676. This was confirmed via Q-PCR.

SMARCA2 [2] = biological target: T1, SMARCA2 (Homo sapiens, UniProt P51531); experiment: SMARCA2 degradation by Western Blotting in MOLM13 cells; assay type: cell-based; parameters: endogenous in cells; host or cells: MOLM13 WT and CRBN KO cells; conditions: MOLM13 WT and CRBN KO cells, 1 μM, indicated time points, FIG. 2
T1 sequence (P51531 whole entry): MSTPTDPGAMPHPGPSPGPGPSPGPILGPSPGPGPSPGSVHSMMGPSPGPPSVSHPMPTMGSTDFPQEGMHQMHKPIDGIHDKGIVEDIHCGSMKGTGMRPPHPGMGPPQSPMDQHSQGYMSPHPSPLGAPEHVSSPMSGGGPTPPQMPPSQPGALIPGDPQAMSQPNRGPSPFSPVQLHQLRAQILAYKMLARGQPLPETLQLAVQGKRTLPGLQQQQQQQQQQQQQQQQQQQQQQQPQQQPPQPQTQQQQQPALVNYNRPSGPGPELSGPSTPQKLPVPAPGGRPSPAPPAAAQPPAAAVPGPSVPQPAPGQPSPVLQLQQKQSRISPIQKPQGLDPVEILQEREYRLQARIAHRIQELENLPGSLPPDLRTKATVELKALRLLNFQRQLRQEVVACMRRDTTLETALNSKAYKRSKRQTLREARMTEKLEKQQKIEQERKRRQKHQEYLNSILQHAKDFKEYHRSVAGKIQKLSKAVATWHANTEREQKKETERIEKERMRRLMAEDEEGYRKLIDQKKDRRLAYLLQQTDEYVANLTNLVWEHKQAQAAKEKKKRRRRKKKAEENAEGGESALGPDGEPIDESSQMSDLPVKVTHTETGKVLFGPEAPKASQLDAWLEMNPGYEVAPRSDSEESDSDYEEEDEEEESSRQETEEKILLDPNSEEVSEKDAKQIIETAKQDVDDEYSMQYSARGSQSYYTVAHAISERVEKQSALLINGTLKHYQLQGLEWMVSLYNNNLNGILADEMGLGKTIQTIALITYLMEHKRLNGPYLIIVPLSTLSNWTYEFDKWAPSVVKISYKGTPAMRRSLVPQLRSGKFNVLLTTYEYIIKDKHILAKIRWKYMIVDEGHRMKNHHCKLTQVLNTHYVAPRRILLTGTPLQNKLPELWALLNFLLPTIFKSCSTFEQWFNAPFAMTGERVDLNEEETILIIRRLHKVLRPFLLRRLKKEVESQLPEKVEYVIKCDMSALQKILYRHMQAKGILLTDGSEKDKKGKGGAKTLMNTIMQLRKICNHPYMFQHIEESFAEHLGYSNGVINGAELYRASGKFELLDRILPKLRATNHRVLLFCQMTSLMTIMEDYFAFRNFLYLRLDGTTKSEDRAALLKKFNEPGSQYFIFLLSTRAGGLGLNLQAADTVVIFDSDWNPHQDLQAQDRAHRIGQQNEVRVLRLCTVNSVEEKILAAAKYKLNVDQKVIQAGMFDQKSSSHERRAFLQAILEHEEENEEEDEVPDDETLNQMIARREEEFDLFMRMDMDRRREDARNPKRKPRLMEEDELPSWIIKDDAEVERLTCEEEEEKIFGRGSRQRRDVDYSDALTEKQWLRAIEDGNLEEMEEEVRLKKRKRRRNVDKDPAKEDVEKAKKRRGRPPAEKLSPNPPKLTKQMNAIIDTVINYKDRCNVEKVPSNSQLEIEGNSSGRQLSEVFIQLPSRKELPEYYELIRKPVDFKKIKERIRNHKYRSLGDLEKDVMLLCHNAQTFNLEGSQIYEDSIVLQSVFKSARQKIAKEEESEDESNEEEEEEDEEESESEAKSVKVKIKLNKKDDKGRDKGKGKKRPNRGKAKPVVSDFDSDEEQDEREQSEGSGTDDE
Protocol: (§1) MOLM13 WT and CRBN KO cells were treated with 1 μM of S31 at indicated time points. Cell lysates were harvested, and proteins were extracted using RIPA buffer.

cleaved PARP = experiment: Cleaved PARP expression (apoptosis); assay type: cell-based; conditions: after 6 hours of treatment
Protocol: as §1
Chemical inhibition of targeted proteins offered the opportunity to understand the function and therapeutic potential of the targets with temporal control. There are several small molecule inhibitors that have been reported to target SMARCA2/4. […] Therefore, PROTACs, bridging small molecules that recruit the target protein into proximity with the E3 ligase system to initiate proteasomal degradation of targeted proteins inside the cells, were developed to target SMARCA2/4. The strategy has recently been described and utilized for the depletion of multiple targets including BRD4, FKBP12, ERR, RIPK2 and BRD9. Compound (1) (S31) is a molecule that contains phthalimide (thalidomide, lenalidomide and pomalidomide, also known as IMiDs®), a CRBN binder, and a SMARCA4/2 binder that are linked via an alkyl linker. The PROTAC dimerized targeted proteins and CRBN, and induced polyubiquitylation followed by proteasomal degradation of SMARCA4/2.

His-CRBN = His-CRBN (Homo sapiens, UniProt Q96SW2); experiment: CRBN binding, biotin-pomalidomide probe with streptavidin donor and nickel chelate acceptor beads; conditions: 50 nM His-CRBN, 1 hr, FIG. 1B
His-CRBN, sequence (Q96SW2 whole entry): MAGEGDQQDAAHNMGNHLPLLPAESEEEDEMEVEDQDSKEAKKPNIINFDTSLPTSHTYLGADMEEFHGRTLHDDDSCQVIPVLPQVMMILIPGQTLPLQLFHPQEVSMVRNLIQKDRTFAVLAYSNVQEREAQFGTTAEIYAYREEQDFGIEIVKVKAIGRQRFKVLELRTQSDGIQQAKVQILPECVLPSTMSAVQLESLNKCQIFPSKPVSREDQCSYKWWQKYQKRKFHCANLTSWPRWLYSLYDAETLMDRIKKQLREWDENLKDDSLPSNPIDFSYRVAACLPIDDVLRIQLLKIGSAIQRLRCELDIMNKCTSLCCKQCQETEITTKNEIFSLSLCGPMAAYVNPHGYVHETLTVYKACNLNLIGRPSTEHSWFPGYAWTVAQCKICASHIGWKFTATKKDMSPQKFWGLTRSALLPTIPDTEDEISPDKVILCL
Protocol: 50 nM of His-CRBN was incubated with biotinylated probe (biotin-pomalidomide), streptavidin donor beads (PerkinElmer®), nickel chelate acceptor beads (PerkinElmer®) and compounds (S31, PFI3 or pomalidomide at indicated concentrations) for 1 hr. After incubation, […] was read according to manufacture instructions (FIG. 1B).

[3] = system: panel of leukemia cell lines; experiment: Growth inhibition in a panel of leukemia cell lines (ATPlite); assay type: cell-based; conditions: 72 hr, FIG. 3
Protocol: S31 was treated in a panel of leukemia cell lines with 10 doses ranging from 10 μM to 1 nM. After 72 hr of treatment, growth inhibition was determined by ATPlite™ (PerkinElmer®). IC50 was calculated by GraphPad Prism® 7 (FIG. 3).

SMARCA4 [4] = biological target: T2, SMARCA4 (Homo sapiens, UniProt P51532); experiment: DSF assay (Protein Thermal Shift Dye Kit), SMARCA4 binding; conditions: 30 min incubation, indicated ratios, FIG. 1A
T2 sequence (P51532 whole entry): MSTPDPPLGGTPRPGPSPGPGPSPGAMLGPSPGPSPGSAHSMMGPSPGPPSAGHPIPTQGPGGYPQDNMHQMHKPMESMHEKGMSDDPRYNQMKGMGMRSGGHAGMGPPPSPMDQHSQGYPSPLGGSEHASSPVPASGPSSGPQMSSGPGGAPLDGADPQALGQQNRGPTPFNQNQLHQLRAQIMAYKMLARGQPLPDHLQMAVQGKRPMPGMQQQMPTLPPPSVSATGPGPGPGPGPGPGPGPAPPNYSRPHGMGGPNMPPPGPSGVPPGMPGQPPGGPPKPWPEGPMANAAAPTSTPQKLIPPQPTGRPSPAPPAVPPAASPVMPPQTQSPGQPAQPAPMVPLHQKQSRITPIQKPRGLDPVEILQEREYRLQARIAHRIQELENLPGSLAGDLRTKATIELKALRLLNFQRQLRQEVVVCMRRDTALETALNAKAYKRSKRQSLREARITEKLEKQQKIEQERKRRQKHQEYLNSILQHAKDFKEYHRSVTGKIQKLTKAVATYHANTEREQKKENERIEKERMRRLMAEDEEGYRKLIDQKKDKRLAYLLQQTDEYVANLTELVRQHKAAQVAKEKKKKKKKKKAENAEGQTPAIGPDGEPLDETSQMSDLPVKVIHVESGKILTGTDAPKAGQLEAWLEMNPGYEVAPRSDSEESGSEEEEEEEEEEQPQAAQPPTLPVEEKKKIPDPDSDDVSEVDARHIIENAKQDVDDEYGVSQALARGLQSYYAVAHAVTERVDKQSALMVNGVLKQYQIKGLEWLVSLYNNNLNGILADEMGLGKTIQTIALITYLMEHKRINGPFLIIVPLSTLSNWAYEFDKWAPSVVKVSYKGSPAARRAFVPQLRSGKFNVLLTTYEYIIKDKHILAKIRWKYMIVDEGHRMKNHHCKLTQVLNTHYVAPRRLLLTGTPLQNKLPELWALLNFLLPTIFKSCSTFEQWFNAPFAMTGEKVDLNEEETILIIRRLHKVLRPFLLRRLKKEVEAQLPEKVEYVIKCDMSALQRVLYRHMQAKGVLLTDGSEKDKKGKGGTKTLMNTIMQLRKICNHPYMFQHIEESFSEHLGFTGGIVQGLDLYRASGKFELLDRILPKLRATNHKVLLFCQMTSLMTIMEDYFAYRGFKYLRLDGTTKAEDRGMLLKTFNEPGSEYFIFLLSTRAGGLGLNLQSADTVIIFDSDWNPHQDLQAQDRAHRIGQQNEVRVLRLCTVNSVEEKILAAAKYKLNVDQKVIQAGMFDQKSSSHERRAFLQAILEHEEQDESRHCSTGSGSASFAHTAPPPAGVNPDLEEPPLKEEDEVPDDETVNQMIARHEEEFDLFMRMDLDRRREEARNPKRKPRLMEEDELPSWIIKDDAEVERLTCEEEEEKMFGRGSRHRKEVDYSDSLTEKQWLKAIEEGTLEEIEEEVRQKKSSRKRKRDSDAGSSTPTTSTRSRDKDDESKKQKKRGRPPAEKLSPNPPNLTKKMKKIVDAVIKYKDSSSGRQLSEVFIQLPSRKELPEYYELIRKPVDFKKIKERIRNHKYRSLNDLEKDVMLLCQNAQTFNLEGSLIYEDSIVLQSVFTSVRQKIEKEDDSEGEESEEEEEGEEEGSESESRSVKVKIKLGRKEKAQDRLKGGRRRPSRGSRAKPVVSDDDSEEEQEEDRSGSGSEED
Protocol: (§2) Recombinant SMARCA4 and SMARCA2 proteins were incubated with S31 at indicated ratios. After 30 min of incubation, DSF assay was performed using Protein Thermal Shift™ Dye Kit (ThermoFisher™) according to manufacture instructions (FIG. 1A).

SMARCA2 [5] = biological target: T1, SMARCA2; experiment: DSF assay (Protein Thermal Shift Dye Kit), SMARCA2 binding; conditions: 30 min incubation, indicated ratios, FIG. 1A
Protocol: as §2

SMARCA4 [6] = biological target: T2, SMARCA4; experiment: SMARCA4 degradation by Western Blotting in MOLM13 cells; assay type: cell-based; parameters: endogenous in cells; host or cells: MOLM13 WT and CRBN KO cells; conditions: MOLM13 WT and CRBN KO cells, 1 μM, indicated time points, FIG. 2
Protocol: as §1

| binding to CRBN (His-CRBN) | IC50 of cell growth ([3]; 10 doses from 10 μM to 1 nM) | binding to SMARCA4 (SMARCA4 [4]) | binding to SMARCA2 (SMARCA2 [5]) | Structure (SMILES) | anti-proliferative effects (MLL rearranged cells) | clinical response ([1]; monotherapy) | side effect profile ([1]; treatment of MLLr AML) | expression of MLL-AF9 target genes (subset such as MYB and FLT3), RNA-seq heatmap (MLL-AF9 targets) | SMARCA2 degradation (SMARCA2 [2]) | cleaved PARP expression, indicating apoptosis (cleaved PARP) | cell growth inhibition / cytotoxicity [3] | SMARCA4 degradation (SMARCA4 [6]) |
| --- | --- | --- | --- | --- | --- | --- | --- | --- | --- | --- | --- | --- |
|  |  |  |  | CC(C)N(C[C@H]1OC(n2cnc3c(N)ncnc32)[C@H](O)[C@@H]1O)C1CC(CCc2nc3cc(C(C)(C)C)ccc3[nH]2)C1 (stereo partly drawn) [EPZ5676, (2R,3R,4S,5R)-2-(6-amino-9H-purin-9-yl)-5-((((1s,3R)-3-(2-(5-(tert-butyl)-1H-benzo[d]imidazol-2-yl)ethyl)cyclobutyl)(isopropyl)amino)methyl)tetrahydrofuran-3,4-diol] | remarkably selective anti-proliferative effects | low effective responses and subsequent relapses | promising side effect profile | could not—or just slightly—affect the gene expression |  |  |  |  |
| binds | low nanomolar range | binds | binds | O=C1CCC(N2C(=O)c3ccc(NCCCCCCCCOCCc4cccc(N5C[C@H]6C[C@@H]5CN6/C=C/C(=O)c5ccccc5O)c4)cc3C2=O)C(=O)N1 (stereo partly drawn) [S31, 2-(2,6-dioxopiperidin-3-yl)-5-((8-(3-((1R,4R)-5-((E)-3-(2-hydroxyphenyl)-3-oxoprop-1-en-1-yl)-2,5-diazabicyclo[2.2.1]heptan-2-yl)phenethoxy)octyl)amino)isoindoline-1,3-dione] |  |  |  | could not—or just slightly—affect the gene expression; also recorded: sensitizes MLL-AF9 targets to EPZ5676 | degraded; also recorded: degradation was observed | cleaved PARP expression abundance was observed | profound inhibition; also recorded: induces cytotoxicity | degraded; also recorded: degradation was observed |
